{
  "source": "patent US10294202B2",
  "about": "“Pyrrolidinones as herbicides” (FMC Corporation, priority 2013, dated 2019)",
  "test_in_all_cases": "Test E preemergence herbicide test",
  "parameters_in_all_cases": "key: 0 = no effect, 100 = complete control",
  "key": {"nightshade": {"tested_on": "nightshade", "assay_type": "in vivo, Solanum ptycanthum", "summary_of_the_method": "(§1)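 Planted in silt loam; preemergence spray, non-phytotoxic solvent/surfactant formulation; greenhouse 21 d; visual score 0–100 vs controls.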"}, "wild poinsettia": {"tested_on": "wild poinsettia", "assay_type": "in vivo, Euphorbia heterophylla", "summary_of_the_method": "as §1"}, "crabgrass, Brazil": {"tested_on": "crabgrass, Brazil", "assay_type": "in vivo, Digitaria horizontalis", "summary_of_the_method": "as §1"}, "velvetleaf": {"tested_on": "velvetleaf", "assay_type": "in vivo, Abutilon theophrasti", "from_the_text": "Seeds of plant species selected from corn (Zea mays), soybean (Glycine max), velvetleaf (Abutilon theophrasti), lambsquarters (Chenopodium album), wild poinsettia (Euphorbia heterophylla), pigweed, palmer (palmer pigweed, Amaranthus palmeri), waterhemp (common waterhemp, Amaranthus rudis), surinam grass (Brachiaria decumbens), crabgrass, large (large crabgrass, Digitaria sanguinalis), crabgrass, Brazil (Brazilian crabgrass, Digitaria horizontalis), panicum, fall (fall panicum, Panicum dichotomiflorum), foxtail, giant (giant foxtail, Setaria faberii), foxtail, green (green foxtail, Setaria viridis), goosegrass (Eleusine indica), johnsongrass (Sorghum halepense), ragweed (common ragweed, Ambrosia elatior), barnyardgrass (Echinochloa crus-galli), sandbur (southern sandbur, Cenchrus echinatus), arrowleaf […] rhombifolia), ryegrass, Italian (Italian ryegrass, Lolium multiflorum), dayflower, VA (Virginia dayflower, Commelina virginica), field bindweed (Convolvulus arvensis), morningglory (Ipomoea coccinea), nightshade (eastern black nightshade, Solanum ptycanthum), kochia (Kochia scoparia), nutsedge, yellow (yellow nutsedge, Cyperus esculentus), cocklebur (common cocklebur, Xanthium strumarium), smartweed (ladysthumb smartweed, Polygonum Persicaria) and beggarticks (hairy beggarticks, Bidens pilosa), were planted into a silt loam soil and treated preemergence with test chemicals formulated in a non-phytotoxic solvent mixture which included a surfactant. Treated plants and controls were maintained in a greenhouse for 21 days, after which time all species were compared to controls and visually evaluated. Plant response ratings, summarized in Table E, are based on a scale of 0 to 100 where 0 is no effect and 100 is complete control. A dash (-) response means no test result."}},
  "data": [
    {"smiles": "O=C1NCC(c2ccc(C(F)(F)F)cc2)C1C(=O)Nc1ccc(F)c(F)c1F", "note": "(stereo not drawn) [Compound 232]", "values": [
      {"measurement": "Plant response rating, Nightshade", "setting": "nightshade; 31 g ai/ha", "value": 25},
      {"measurement": "Plant response rating, Nightshade", "setting": "nightshade; 62 g ai/ha", "value": 75},
      {"measurement": "Plant response rating, Nightshade", "setting": "nightshade; 125 g ai/ha", "value": 98},
      {"measurement": "Plant response rating, Poinsettia, Wild", "setting": "wild poinsettia; 31 g ai/ha", "value": 0},
      {"measurement": "Plant response rating, Poinsettia, Wild", "setting": "wild poinsettia; 62 g ai/ha", "value": 0},
      {"measurement": "Plant response rating, Poinsettia, Wild", "setting": "wild poinsettia; 125 g ai/ha", "value": 35},
      {"measurement": "Plant response rating, Poinsettia, Wild", "setting": "wild poinsettia; 250 g ai/ha", "value": 40},
      {"measurement": "Plant response rating, Crabgrass, Brazil", "setting": "crabgrass, Brazil; 31 g ai/ha", "value": 95},
      {"measurement": "Plant response rating, Crabgrass, Brazil", "setting": "crabgrass, Brazil; 62 g ai/ha", "value": 98},
      {"measurement": "Plant response rating, Crabgrass, Brazil", "setting": "crabgrass, Brazil; 125 g ai/ha", "value": 98},
      {"measurement": "Plant response rating, Crabgrass, Brazil", "setting": "crabgrass, Brazil; 250 g ai/ha", "value": 98},
      {"measurement": "Plant response rating, Velvetleaf", "setting": "velvetleaf; 31 g ai/ha", "value": 0},
      {"measurement": "Plant response rating, Velvetleaf", "setting": "velvetleaf; 62 g ai/ha", "value": 0},
      {"measurement": "Plant response rating, Velvetleaf", "setting": "velvetleaf; 125 g ai/ha", "value": 20},
      {"measurement": "Plant response rating, Velvetleaf", "setting": "velvetleaf; 250 g ai/ha", "value": 80}
    ]}
  ]
}
